# Data: ChEMBL document CHEMBL1201862, “PubChem BioAssay data set” (2004)
# Active and inactive are the calls of the source.
# What was measured:
# [1] = fluconazole-exposed Candida albicans growth modulators – fluorescence, retest, confirmation (AID 2467); type: functional, cell-based
# [2] = viability of PTEN-deleted HCT116 cells – cell-based, HCT116 PTEN knockout, dose response (AID 1047); type: functional;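 note: HCT116 colon tumor cells with PTEN knocked out; cells exposed to compound for 60 hours before readout; potency for loss of cell viability measured by luminescence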
# [3] = target: T1, Voltage-gated N-type calcium channel alpha-1B subunit/Amyloid beta A4 precursor protein-binding family A member 1 (Homo sapiens, UniProt Q00975+Q02410); type: protein assay
# [4] = loss of viability in HepG2 cells – cell-based, CellTiter-Glo, cherry-picked, cytotoxicity control for Shn3 inhibitor project, dose response (AID 624134); type: functional
# [5] = Trypanosoma cruzi growth suppression in host cells – NIH3T3 host cells, beta-gal luminescence, confirmation (AID 2044); type: functional, cell-based;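 note: intracellular parasites grown in NIH/3T3 mouse fibroblasts as host cells; luminescent beta-galactosidase reporter signal from transgenic T. cruzi replicating inside host cells; inhibitors lower the luminescence signal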
# [6] = viability of HCT116 lacking mutant beta-catenin – cell-based, human colon tumor, dose response (AID 1045); type: functional;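 note: HCT116 colon tumor cells with beta catenin knocked out; cells exposed to compound for 60 hours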
# [7] = target: T1, Voltage-gated N-type calcium channel alpha-1B subunit/Amyloid beta A4 precursor protein-binding family A member 1; type: protein assay; remark: listed apart in the source
# [8] = reduction of Shn3 3'UTR-driven luciferase in osteoblasts – cell-based, Clone20 osteoblasts, firefly luciferase, cherry-picked, dose response (AID 624132); type: functional;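 note: firefly luciferase luminescence from reporter carrying the Shn3 3'UTR in osteoblasts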
# Large T antigen = Large T antigen (Simian virus 40, UniProt P03070); type: functional, Betapolyomavirus macacae;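 note: Confirmatory-stage PubChem screen for compounds that inhibit SV40 T antigen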
# [9] = non-specific 3'UTR reporter inhibition in Clone20-Shn3RL – cell-based, Renilla luciferase, cherry-picked, counter-screen for Shn3 inhibitor project, dose response (AID 624133); type: functional
# [10] = target: Heat shock protein HSP 90-alpha (Homo sapiens, UniProt P07900); type: functional, organism-based
# [11] = NIH3T3 cell viability loss – ATP luminescence, mouse fibroblasts, counter-screen, dose response (AID 2010); type: functional, cell-based;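 note: cells exposed to compound for about 90 hours before reading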
# Beta-galactosidase = Beta-galactosidase (Escherichia coli, UniProt Q8VNN2); test: detection-enzyme interference by beta-gal modulators – biochemical, E. coli enzyme, set 3, artefact control for CCR6 antagonist project, dose response (AID 504712); type: functional
# [12] = Luminescence Cell-Based Dose Response HTS to Identify Activators of Luciferase Translation or Activity in H4 […] Cells. [Related pubchem assays: 1829 (Project Summary), 1814 (Primary HTS)]; type: functional
# [13] = Luminescence Cell-Based Dose Confirmation HTS to Identify Activators of 5'UTR Stem-Loop Driven Alpha-Synuclein mRNA Translation in H4 Neuroglioblastoma Cells. [Related pubchem assays: 1829 (Project Summary), 1814 (Primary HTS)]; type: functional
# H4 = test: Luminescence Cell-Based Dose Response HTS to Identify Activators of 5'UTR Stem-Loop Driven Prion Protein mRNA Translation in H4 Neuroglioblastoma Cells. [Related pubchem assays: 1829 (Project Summary), 1814 (Primary HTS)]; type: functional; settings: Homo sapiens
# Genome polyprotein = Genome polyprotein (dengue virus type 2, UniProt P29990); test: flavivirus cap methylation enzyme inhibition – biochemical, confirmation dose response, primary screen (AID 588689); type: functional
# [14] = target: DNA (cytosine-5)-methyltransferase 1 (Homo sapiens, UniProt P26358); test: inhibition of DNA methylation by DNMT1 – biochemical, fluorescent molecular beacon, confirmation (AID 602386); type: functional
# [15] = target: T2, Carboxy-terminal domain RNA polymerase II polypeptide A small phosphatase 1 (Homo sapiens, UniProt Q9GZU7); test: CTDSP1 inhibitors, concentration-response, biochemical, absorbance readout, ultra-high-throughput screen actives (AID 540297); type: functional
# T2 sequence (Q9GZU7 whole entry): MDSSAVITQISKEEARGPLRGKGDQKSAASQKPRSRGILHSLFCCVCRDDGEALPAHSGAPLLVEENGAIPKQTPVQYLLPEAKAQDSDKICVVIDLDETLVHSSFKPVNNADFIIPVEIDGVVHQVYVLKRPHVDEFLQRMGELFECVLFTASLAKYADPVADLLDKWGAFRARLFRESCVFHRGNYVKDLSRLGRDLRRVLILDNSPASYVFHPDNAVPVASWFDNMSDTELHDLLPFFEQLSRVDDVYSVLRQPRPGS
# [16] = target: Induced myeloid leukemia cell differentiation protein Mcl-1 (Homo sapiens, UniProt Q07820); type: functional
# [17] = target: DNA dC->dU-editing enzyme APOBEC-3G (Homo sapiens, UniProt Q9HC16); type: functional;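 note: Dose-response counterscreen measuring inhibition of APOBEC3G DNA deaminase activity, run while confirming APOBEC3A inhibitors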
# [18] = target: DNA dC->dU-editing enzyme APOBEC-3A (Homo sapiens, UniProt P31941); test: Dose Response confirmation of small molecule APOBEC3A DNA Deaminase Inhibitors via a fluorescence-based single-stranded DNA deaminase assay. [Related pubchem assays (depositor defined):AID493011, AID493024]; type: functional
# [19] = target: Glyceraldehyde-3-phosphate dehydrogenase (Homo sapiens, UniProt P04406)
# [20] = Luminescence-based counterscreen assay for KLF5 inhibitors: dose response cell-based high throughput screening assay to identify cytotoxic compounds using the IEC-6 intestinal epithelial cell line. [Related pubchem assays: 1700 (Primary screen.), 1834 (Confirmation screen.), 1858 (Summary AID.), 1905 (Counterscreen.)]; type: functional
# [21] = target: T3, COUP transcription factor 2 (Homo sapiens, UniProt P24468); test: Luminescence-based cell-based high throughput dose response assay to identify inhibitors of COUP-TFII (NR2F2).; type: functional;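 note: HEK293 cells transiently cotransfected with COUP-TFII expression vector and reporter; luciferase reporter luminescence driven by COUP-TFII from the pX2-168 reporter plasmid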
# T3 sequence (P24468 whole entry): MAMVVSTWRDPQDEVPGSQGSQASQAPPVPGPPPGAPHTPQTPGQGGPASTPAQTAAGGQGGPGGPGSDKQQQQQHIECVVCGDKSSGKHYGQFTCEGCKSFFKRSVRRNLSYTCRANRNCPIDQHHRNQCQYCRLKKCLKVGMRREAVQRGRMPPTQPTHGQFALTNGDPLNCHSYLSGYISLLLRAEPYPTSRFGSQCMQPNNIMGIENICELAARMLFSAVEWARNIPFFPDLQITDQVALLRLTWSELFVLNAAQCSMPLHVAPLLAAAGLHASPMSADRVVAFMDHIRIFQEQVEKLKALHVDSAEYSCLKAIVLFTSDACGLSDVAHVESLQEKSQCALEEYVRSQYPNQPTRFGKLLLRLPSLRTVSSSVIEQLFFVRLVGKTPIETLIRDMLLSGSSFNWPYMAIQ
# Protein Wnt-3a = Protein Wnt-3a (Mus musculus, UniProt P27467); test: antagonism of Wnt3a pathway luciferase reporter – Wnt-LIGHT cells, luminescence, selectivity assay for Gli-SUFU antagonist project, dose response (AID 651570); type: functional; settings: read-out: IC50_Mean;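 note: Wnt-LIGHT reporter cells stimulated with conditioned medium from Wnt3a-producing cells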
# T1 sequence (Q00975 whole entry): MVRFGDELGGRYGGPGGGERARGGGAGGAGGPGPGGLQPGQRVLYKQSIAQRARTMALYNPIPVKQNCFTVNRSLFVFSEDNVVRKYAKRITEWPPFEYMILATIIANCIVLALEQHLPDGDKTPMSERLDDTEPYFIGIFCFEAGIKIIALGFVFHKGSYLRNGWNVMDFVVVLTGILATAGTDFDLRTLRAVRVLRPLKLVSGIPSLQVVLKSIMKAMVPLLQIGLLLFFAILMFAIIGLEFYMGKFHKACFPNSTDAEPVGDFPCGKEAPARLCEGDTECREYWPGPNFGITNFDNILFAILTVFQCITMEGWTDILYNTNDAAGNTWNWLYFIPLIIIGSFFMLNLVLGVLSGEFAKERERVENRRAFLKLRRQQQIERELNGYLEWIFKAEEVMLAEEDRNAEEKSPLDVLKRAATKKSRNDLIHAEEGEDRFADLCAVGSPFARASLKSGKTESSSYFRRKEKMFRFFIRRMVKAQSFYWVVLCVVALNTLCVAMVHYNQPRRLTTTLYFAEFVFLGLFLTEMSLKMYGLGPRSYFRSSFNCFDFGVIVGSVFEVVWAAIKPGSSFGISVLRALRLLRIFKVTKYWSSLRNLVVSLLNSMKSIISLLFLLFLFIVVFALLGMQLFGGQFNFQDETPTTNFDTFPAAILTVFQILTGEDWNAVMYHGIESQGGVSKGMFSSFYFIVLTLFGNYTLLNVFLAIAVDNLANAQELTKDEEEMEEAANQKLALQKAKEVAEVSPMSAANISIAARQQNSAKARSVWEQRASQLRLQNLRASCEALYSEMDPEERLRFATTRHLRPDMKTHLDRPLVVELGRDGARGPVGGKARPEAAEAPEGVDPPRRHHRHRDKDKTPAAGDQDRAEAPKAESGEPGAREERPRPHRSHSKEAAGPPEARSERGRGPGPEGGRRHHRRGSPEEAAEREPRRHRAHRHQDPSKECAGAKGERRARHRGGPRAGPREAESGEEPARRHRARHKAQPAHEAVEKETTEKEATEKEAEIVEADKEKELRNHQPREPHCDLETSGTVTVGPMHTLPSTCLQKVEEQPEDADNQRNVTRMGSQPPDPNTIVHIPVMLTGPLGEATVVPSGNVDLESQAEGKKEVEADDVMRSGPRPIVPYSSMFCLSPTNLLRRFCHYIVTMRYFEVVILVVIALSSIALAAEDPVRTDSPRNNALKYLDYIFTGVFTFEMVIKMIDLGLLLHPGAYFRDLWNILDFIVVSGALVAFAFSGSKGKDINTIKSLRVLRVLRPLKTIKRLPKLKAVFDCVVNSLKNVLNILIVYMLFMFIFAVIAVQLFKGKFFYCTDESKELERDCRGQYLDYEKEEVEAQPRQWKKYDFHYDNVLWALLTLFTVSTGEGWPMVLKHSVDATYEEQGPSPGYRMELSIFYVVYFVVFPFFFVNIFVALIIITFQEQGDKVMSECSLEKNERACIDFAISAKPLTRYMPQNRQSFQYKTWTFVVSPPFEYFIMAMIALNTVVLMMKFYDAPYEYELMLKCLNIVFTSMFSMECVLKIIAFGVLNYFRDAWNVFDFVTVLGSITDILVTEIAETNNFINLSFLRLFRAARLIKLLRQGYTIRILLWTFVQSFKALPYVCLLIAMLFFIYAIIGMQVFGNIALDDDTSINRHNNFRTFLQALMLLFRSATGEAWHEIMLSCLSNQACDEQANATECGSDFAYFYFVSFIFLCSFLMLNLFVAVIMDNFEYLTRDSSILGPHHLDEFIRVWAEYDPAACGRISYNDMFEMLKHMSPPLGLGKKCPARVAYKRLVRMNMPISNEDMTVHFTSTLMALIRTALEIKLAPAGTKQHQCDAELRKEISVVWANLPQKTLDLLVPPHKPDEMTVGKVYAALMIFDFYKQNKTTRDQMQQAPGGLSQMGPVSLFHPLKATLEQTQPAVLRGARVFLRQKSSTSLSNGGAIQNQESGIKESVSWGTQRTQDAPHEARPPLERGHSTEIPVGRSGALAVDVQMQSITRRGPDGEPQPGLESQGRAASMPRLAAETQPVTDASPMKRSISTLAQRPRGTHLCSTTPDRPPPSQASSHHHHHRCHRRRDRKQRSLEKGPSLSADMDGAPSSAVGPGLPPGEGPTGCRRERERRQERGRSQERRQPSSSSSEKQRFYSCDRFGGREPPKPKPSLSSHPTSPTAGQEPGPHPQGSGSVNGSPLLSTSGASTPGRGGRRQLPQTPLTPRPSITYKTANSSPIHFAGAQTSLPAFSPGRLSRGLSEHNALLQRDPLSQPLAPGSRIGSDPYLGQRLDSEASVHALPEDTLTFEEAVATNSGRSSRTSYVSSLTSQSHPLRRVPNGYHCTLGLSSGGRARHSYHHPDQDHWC
# T1 sequence (Q02410 whole entry): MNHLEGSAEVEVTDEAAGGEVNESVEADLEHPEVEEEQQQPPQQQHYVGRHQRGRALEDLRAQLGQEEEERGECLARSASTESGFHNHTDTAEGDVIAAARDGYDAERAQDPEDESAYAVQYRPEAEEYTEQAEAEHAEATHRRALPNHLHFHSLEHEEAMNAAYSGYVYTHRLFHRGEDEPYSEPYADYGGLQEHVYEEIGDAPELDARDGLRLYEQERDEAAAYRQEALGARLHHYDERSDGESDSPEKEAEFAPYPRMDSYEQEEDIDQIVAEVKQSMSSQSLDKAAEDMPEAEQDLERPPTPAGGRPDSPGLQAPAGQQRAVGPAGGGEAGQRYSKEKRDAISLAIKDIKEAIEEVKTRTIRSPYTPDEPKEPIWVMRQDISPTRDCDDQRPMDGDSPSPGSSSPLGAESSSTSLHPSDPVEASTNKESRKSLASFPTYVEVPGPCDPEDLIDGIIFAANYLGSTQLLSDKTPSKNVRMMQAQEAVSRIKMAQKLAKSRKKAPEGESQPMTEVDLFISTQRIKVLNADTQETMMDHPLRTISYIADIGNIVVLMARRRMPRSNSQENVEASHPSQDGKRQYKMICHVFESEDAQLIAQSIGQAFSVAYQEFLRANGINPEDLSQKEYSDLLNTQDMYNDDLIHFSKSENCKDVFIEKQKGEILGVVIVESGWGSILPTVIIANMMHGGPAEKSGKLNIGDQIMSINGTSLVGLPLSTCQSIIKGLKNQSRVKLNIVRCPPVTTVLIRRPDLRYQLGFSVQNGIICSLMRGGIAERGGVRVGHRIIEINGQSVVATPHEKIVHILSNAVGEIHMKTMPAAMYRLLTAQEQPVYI
# Sequence of Induced myeloid leukemia cell differentiation protein Mcl-1 (Q07820 whole entry): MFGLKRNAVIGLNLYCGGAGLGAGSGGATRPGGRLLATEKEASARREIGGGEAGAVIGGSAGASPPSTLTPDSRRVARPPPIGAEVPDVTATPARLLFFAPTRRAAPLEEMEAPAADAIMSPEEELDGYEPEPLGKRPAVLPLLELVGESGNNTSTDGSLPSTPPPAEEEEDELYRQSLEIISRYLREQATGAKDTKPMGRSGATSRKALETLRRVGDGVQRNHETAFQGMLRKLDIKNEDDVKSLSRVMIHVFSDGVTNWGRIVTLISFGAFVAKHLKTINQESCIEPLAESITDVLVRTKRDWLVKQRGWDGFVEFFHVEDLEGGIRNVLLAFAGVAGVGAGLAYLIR
# Sequence of DNA dC->dU-editing enzyme APOBEC-3A (P31941 whole entry): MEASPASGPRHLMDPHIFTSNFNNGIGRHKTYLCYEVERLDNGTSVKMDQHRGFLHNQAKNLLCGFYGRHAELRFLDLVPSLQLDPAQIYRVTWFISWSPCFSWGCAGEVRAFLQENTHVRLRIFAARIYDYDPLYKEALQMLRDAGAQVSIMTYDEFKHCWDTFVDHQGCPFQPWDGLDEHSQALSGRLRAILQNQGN
# Sequence of DNA dC->dU-editing enzyme APOBEC-3G (Q9HC16 whole entry): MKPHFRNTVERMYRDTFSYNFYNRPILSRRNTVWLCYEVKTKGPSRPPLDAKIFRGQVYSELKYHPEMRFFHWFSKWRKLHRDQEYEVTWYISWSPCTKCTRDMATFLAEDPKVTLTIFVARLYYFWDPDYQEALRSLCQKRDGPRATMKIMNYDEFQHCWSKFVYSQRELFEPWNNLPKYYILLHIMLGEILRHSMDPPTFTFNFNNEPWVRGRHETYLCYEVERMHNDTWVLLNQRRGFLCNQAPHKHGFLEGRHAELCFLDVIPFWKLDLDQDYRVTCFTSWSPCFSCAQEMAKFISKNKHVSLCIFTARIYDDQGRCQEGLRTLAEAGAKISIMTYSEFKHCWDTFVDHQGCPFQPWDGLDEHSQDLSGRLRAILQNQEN
# Sequence of Genome polyprotein (P29990 2492-3391 limits assumed): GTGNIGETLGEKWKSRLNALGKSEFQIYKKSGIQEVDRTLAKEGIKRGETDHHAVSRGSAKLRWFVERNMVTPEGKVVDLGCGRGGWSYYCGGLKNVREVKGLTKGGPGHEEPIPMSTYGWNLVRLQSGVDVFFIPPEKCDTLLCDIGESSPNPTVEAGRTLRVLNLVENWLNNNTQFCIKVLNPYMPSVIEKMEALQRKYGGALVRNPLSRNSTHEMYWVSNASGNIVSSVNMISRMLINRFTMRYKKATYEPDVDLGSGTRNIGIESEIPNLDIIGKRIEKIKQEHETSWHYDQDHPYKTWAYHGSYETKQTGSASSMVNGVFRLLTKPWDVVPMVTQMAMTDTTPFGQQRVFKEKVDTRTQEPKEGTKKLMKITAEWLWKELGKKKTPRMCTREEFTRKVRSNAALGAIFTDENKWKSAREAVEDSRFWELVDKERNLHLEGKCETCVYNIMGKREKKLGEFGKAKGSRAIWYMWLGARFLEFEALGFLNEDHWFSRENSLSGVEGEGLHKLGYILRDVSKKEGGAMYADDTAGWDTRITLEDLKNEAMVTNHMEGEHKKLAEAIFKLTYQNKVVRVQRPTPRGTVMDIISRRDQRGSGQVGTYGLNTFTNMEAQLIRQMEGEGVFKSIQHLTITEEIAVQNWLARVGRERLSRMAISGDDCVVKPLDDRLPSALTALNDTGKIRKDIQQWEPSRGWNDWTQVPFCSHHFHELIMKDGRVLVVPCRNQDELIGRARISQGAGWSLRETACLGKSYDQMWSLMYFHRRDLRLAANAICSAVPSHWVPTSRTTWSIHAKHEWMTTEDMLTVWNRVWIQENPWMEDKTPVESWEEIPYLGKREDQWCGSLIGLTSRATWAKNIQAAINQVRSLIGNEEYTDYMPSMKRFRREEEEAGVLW
structure (smiles),measurement,setting,value
Cc1ccc(-n2nnnc2C(Cl)(Cl)c2nnnn2-c2ccc(C)cc2)cc1,EC50,[1],> 38 µM (not active)
same,EC50,[2],9.09 µM (active)
same,IC50,[3],5.57 µM (active)
same,AC50,[4],> 70 µM (inactive)
same,EC50,[5],1.11 µM (active)
same,EC50,[6],9.11 µM (active)
same,IC50,[7],4.55 µM (active)
same,AC50,[8],4.71 µM (active)
same,IC50,Large T antigen,11.1 µM (active)
same,AC50,[9],15.6 µM (active)
same,AC50,[10],1.27 µM (active)
same,EC50,[11],15 µM (active)
CCCC(=O)N1c2ccccc2C(=C2SC(C(=O)OC)=C(C(=O)OC)S2)C(=S)C1(C)C,IC50,Beta-galactosidase,> 66.6 µM (inactive)
same,EC50,[12],> 120 µM (not active)
same,EC50,[13],> 60 µM (not active)
same,EC50,H4,> 120 µM (not active)
COc1ccc(-c2csc(NC(=O)CSc3nc(C)nc4sc(C(=O)O)c(C)c34)n2)cc1,IC50,[3],> 50 µM (inactive)
same,IC50,Genome polyprotein,92.7 µM (active)
same,IC50,[7],> 56.8 µM (not active)
same,IC50,[14],14.6 µM (active)
same,IC50,[15],4.31 µM (active)
same,IC50,[16],7.81 µM (active)
CCN1CCN(S(=O)(=O)c2ccc(Cl)c(C(=O)Nc3ccccc3N3CCOCC3)c2)CC1,IC50,[17],3.81 µM (active)
same,IC50,[18],4.8 µM (active)
COc1ccc(N2CCN(C3=C(Cl)C(=O)N(c4cccc(C)c4)C3=O)CC2)cc1,IC50,[19],> 50 µM (inconclusive)
CC(C)CC(NC(=O)CCCNC(=O)CCC(=O)OC1O[C@H]2OC3(C)CC[C@H]4[C@H](C)CCC(C1C)C24OO3)C(=O)O (stereo not given in full),IC50,[20],31.8 µM (not active)
same,IC50,[21],> 85.4 µM (inactive)
same,AC50,[4],> 70 µM (inactive)
same,IC50,Protein Wnt-3a,0.304 µM (active)
same,AC50,[9],5.65 µM (active)
